Tests used:
Assay in all cases: relative viability (nuclei count vs DMSO), 5 days (fraction); higher = more cells survive
[1] = compound: NCC(=O)Nc1ccc(-n2nc(C(F)(F)F)cc2-c2ccc3c(ccc4ccccc43)c2)cc1 + O=C(c1cc(Cc2n[nH]c(=O)c3ccccc23)ccc1F)N1CCN(C(=O)C2CC2)CC1 [Olaparib] (partner 8 µM)
Procedure, shortened: (§1)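 Each reported value is a median over duplicate plates. It expresses relative viability: treated-well nuclei count divided by vehicle-well nuclei count. Lung cancer cell lines in 1536-well plates were dosed by pin tool a day after seeding, alone with one drug or with a fixed anchor-drug dose plus five library-drug doses (not always all listed) in √10 steps, and nuclei were counted after 5 days.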

kb NB 142-70 + Foretinib = compound: C1CSC2=C(C(=O)N1)SC3=C2C=C(C=C3)O [kb NB 142-70] + COc1cc2c(Oc3ccc(NC(=O)C4(C(=O)Nc5ccc(F)cc5)CC4)cc3F)ccnc2cc1OCCCN1CCOCC1 [Foretinib] (partner 0.25 µM)
Procedure, shortened: as §1

[2] = compound: NCC(=O)Nc1ccc(-n2nc(C(F)(F)F)cc2-c2ccc3c(ccc4ccccc43)c2)cc1 + COc1cccc2cc(-c3nc([C@H]4CC[C@H](C(=O)O)CC4)n4ncnc(N)c34)[nH]c12 [OSI-027] (partner 0.5 µM)
Procedure, shortened: as §1

[3] = compound: NCC(=O)Nc1ccc(-n2nc(C(F)(F)F)cc2-c2ccc3c(ccc4ccccc43)c2)cc1 + CS(=O)(=O)N1CCN(Cc2cc3nc(-c4cccc5[nH]ncc45)nc(N4CCOCC4)c3s2)CC1 [Pictilisib] (partner 1 µM)
Procedure, shortened: as §1

| Cell Line | relative viability ([1]; first compound 0.02 µM) | relative viability ([1]; first compound 0.06325 µM) | relative viability ([1]; first compound 0.2 µM) | relative viability ([1]; first compound 0.6325 µM) | relative viability ([1]; first compound 2 µM) | relative viability (kb NB 142-70 + Foretinib; first compound 0.1 µM) | relative viability (kb NB 142-70 + Foretinib; first compound 1 µM) | relative viability (kb NB 142-70 + Foretinib; first compound 3.162 µM) | relative viability ([2]; first compound 0.02 µM) | relative viability ([2]; first compound 0.06325 µM) | relative viability ([2]; first compound 0.2 µM) | relative viability ([2]; first compound 0.6325 µM) | relative viability ([2]; first compound 2 µM) | relative viability ([3]; first compound 0.02 µM) | relative viability ([3]; first compound 0.06325 µM) | relative viability ([3]; first compound 0.2 µM) | relative viability ([3]; first compound 0.6325 µM) | relative viability ([3]; first compound 2 µM) |
| --- | --- | --- | --- | --- | --- | --- | --- | --- | --- | --- | --- | --- | --- | --- | --- | --- | --- | --- |
| HCC-15 | 0.718 | 0.743 | 0.798 | 0.681 | 0.711 | 1.01 | 1.13 | 0.946 | 0.675 | 0.679 | 0.689 | 0.658 | 0.697 | 0.705 | 0.773 | 0.8 | 0.747 | 0.743 |
| HCC-44 | 1.05 | 0.994 | 0.953 | 0.941 | 0.956 | – | – | – | 0.461 | 0.743 | 0.592 | 0.651 | 0.497 | 0.5 | 0.638 | 0.633 | 0.684 | 0.659 |
| HCC-78 | 0.9 | 0.837 | 1.02 | 0.868 | 0.814 | 0.496 | 0.585 | 0.614 | 0.402 | 0.375 | 0.329 | 0.347 | 0.41 | 0.208 | 0.245 | 0.216 | 0.205 | 0.203 |
| HCC-366 | 0.351 | 0.406 | 0.345 | 0.387 | 0.349 | 0.93 | 0.858 | 0.895 | 0.829 | 1.08 | 1.09 | 0.848 | 0.816 | 0.147 | 0.205 | 0.174 | 0.172 | 0.141 |
| HCC-827 | 0.916 | 0.642 | 0.61 | 0.595 | 0.767 | 1.08 | 0.981 | 0.852 | 0.771 | 0.756 | 0.751 | 0.745 | 0.734 | 1.01 | 1.15 | 1.05 | 0.79 | 0.896 |
| HOP-62 | 0.284 | 0.361 | 0.381 | 0.408 | 0.431 | 1.19 | 1.18 | 1.02 | 0.852 | 0.801 | 0.828 | 0.778 | 0.812 | 0.775 | 0.577 | 0.68 | 0.752 | 0.623 |
| IA-LM | 0.986 | 0.722 | 0.951 | 0.896 | 1 | 1.31 | 1.34 | 1.37 | – | – | – | – | – | 0.444 | 0.356 | 0.302 | 0.477 | 0.288 |
| LC-2-ad | 0.676 | 0.801 | 0.728 | 0.719 | 0.698 | 0.977 | 0.953 | 0.668 | 0.755 | 0.911 | 0.647 | 0.75 | 1.05 | 0.428 | 0.503 | 0.377 | 0.453 | 0.403 |
| LCLC-97TM1 | 0.538 | 0.421 | 0.317 | 0.409 | 0.364 | 1.01 | 0.883 | 0.606 | 0.656 | 0.567 | 0.503 | 0.625 | 0.606 | 0.29 | 0.215 | – | 0.178 | 0.187 |
| NCI-H522 | 0.666 | 0.777 | 0.721 | 0.685 | 0.656 | – | – | – | – | 0.785 | 0.697 | 0.699 | 0.713 | – | – | – | – | – |
| NCI-H1299 | 0.96 | 0.916 | 0.977 | 0.918 | 0.998 | 1.08 | 1.12 | 1.11 | – | – | – | – | – | 0.346 | 0.8 | 0.804 | 0.781 | 0.732 |
| NCI-H1563 | – | – | – | – | – | 0.95 | 0.986 | 0.935 | 0.785 | 0.786 | 0.761 | 0.771 | 0.719 | 0.69 | 0.683 | 0.669 | 0.611 | 0.622 |
| NCI-H1623 | – | – | – | – | – | 0.932 | 0.843 | 0.722 | 0.439 | 0.475 | 0.395 | 0.494 | 0.432 | – | – | – | – | – |
| NCI-H1648 | 0.577 | 1.03 | 1.02 | 0.649 | 0.56 | – | – | – | 0.248 | 0.262 | 0.257 | 0.227 | 0.273 | – | – | – | – | – |
| NCI-H1703 | 0.498 | 0.356 | 0.644 | 0.367 | 0.368 | 0.351 | 0.338 | 0.346 | – | – | – | – | – | 0.218 | 0.244 | 0.278 | 0.255 | 0.262 |
| NCI-H1792 | 0.597 | 0.518 | 0.404 | 0.385 | 0.511 | – | – | – | 0.657 | – | 0.824 | 0.722 | 0.803 | 0.244 | 0.319 | 0.277 | 0.315 | 0.344 |
| NCI-H2342 | 0.623 | 0.477 | 0.434 | 0.447 | 0.422 | 0.96 | 1.03 | 0.978 | 0.666 | 0.726 | 0.635 | 0.539 | 0.648 | – | – | – | – | – |
| SW 900 | 0.86 | 0.881 | 0.88 | 0.693 | 0.994 | 1.06 | 1.2 | 0.436 | – | 0.54 | 0.627 | 0.648 | 0.507 | – | – | – | – | – |
